Results as given in patent publication US10377770B2 (Novartis AG, priority 2015, dated 2019).

These compounds were tested against C-Raf FL (full length CRAF with Y340E and Y341E activating mutations, co-expressed with h14-3-3 zeta) (Homo sapiens (Human), UniProt P04049, Y340E/Y341E) (assay: In vitro Raf activity determination, AlphaScreen p-MEK readout, c-Raf (C-Raf FL)). Conditions: c-Raf approximately 4 nM, ATP 1 μM, pre-incubation 60 minutes, reaction 1 hour.
Format: biochemical
How it was run: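 Full-length C-Raf (~4 nM) pre-incubated 60 min at room temperature with compound and kinase-dead biotinylated MEK1 (~10 nM) in Tris pH 7.5, 15 mM MgCl2, BSA, DTT. Reaction started with 1 μM ATP and run 1 h at room temperature. Phospho-MEK detected by AlphaScreen with anti-p-MEK antibody.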

Row | Compound | IC50
1 | Cc1ccc(NC(=O)c2ccnc(C(F)(F)F)c2)cc1-c1cnc2c(c1)N1CCOC[C@H]1C[C@@H]2C [Example 521, N-(4-methyl-3-((4aR,6S)-6-methyl-1,2,4,4a,5,6-hexahydro-[1,4]oxazino[4,3-a][1,5]naph-thyridin-9-yl)phenyl)-2-(trifluoromethyl)iso-nicotinamide] | 0.5 nM
2 | Cc1ccc(NC(=O)c2ccnc(C(F)(F)F)c2)cc1-c1cnc2c(c1)N1CCOC[C@H]1C[C@H]2C [Example 522, N-(4-methyl-3-((4aR,6R)-6-methyl-1,2,4,4a,5,6-hexahydro-[1,4]oxazino[4,3-a][1,5]naph-thyridin-9-yl)phenyl)-2-(trifluoromethyl)iso-nicotinamide] | 0.1 nM
3 | Cc1ccc(NC(=O)c2ccnc(C(C)(C)F)c2)cc1-c1ccc2c(c1)N1CCOC[C@H]1[C@](F)(CN)C2 [Example 525, N-(3-((4aS,5R)-5-(aminomethyl)-5-fluoro-1,2,4,4a,5,6-hexahydro-[1,4]oxazino[4,3-a]quinolin-9-yl)-4-methylphenyl)-2-(2-fluoropropan-2-yl)isonicotinamide] | 1.5 nM
4 | Cc1ncc(NC(=O)c2cccc(C(F)(F)F)c2)cc1-c1ccc2c(c1)N1CCOC[C@H]1[C@](F)(CN)C2 [Example 526, N-(5-((4aS,5R)-5-(aminomethyl)-5-fluoro-1,2,4,4a,5,6-hexahydro-[1,4]oxazino[4,3-a]quinolin-9-yl)-6-methylpyridin-3-yl)-3-(trifluoromethyl)benzamide] | 2.6 nM
5 | Cc1ccc(NC(=O)c2ccnc(C(F)(F)F)c2)cc1-c1cnc2c(c1)N1CCOC[C@H]1C(C)(C)[C@H]2N [Example 527] | 0.9 nM
6 | Cc1ccc(NC(=O)c2ccnc(C(F)(F)F)c2)cc1-c1ccc2c(c1)N1CCOCC[C@H]1C(F)(F)[C@H]2O [Example 528] | 0.7 nM
7 | CC(=O)N[C@H]1c2ncc(-c3cc(NC(=O)c4ccnc(C(F)(F)F)c4)ccc3C)cc2N2CCOC[C@H]2C1(C)C [Example 529, N-(3-((4aR,6R)-6-acetamido-5,5-dimethyl-1,2,4,4a,5,6-hexahydro-[1,4]oxazino[4,3-a][1,5]naphthyridin-9-yl)-4-methylphenyl)-2-(trifluoromethyl)isonicotinamide] | 2.3 nM
8 | CNC[C@@H]1Cc2ncc(-c3cc(NC(=O)c4ccnc(C(F)(F)F)c4)ccc3C)cc2N2CCOC[C@@H]12 [Example 530, N-(4-methyl-3-((4aR,5S)-5-((methylamino)meth-yl)-1,2,4,4a,5,6-hexahydro-[1,4]oxazino[4,3-a][1,5]naphthyridin-9-yl)phenyl)-2-(trifluoromethyl)iso-nicotinamide] | 0.4 nM
9 | CNC[C@H]1Cc2ncc(-c3cc(NC(=O)c4ccnc(C(F)(F)F)c4)ccc3C)cc2N2CCOC[C@H]12 [Example 531, N-(4-methyl-3-((4aS,5R)-5-((methylamino)meth-yl)-1,2,4,4a,5,6-hexahydro-[1,4]oxazino[4,3-a][1,5]naphthyridin-9-yl)phenyl)-2-(trifluoromethyl)iso-nicotinamide] | 0.2 nM
10 | CC[C@@H]1Oc2nnc(-c3cc(NC(=O)c4ccnc(C(C)(F)F)c4)ccc3C)cc2N2CCOC[C@H]12 [Example 532, 2-(1,1-Difluoroethyl)-N-(3-((6S,6aR)-6-ethyl-6a,7,9,10-tetrahydro-6H-[1,4]oxazino[4,3-d]pyridazino[3,4-b][1,4]oxazin-2-yl)-4-methylphenyl)isonicotinamide] | 0.2 nM
11 | CC[C@H]1Oc2nnc(-c3cc(NC(=O)c4ccnc(C(C)(F)F)c4)ccc3C)cc2N2CCOC[C@H]12 [Example 533, 2-(1,1-difluoroethyl)-N-(3-((6R,6aR)-6-ethyl-6a,7,9,10-tetrahydro-6H-[1,4]oxazino[4,3-d]pyridazino[3,4-b][1,4]oxazin-2-yl)-4-methylphenyl)isonicotinamide] | 0.1 nM
12 | CC[C@@H]1Oc2nnc(-c3cc(NC(=O)c4ccnc(C(C)(F)F)c4)ccc3C)cc2N2CCOC[C@@H]12 [Example 534, 2-(1,1-difluoroethyl)-N-(3-((6S,6aS)-6-ethyl-6a,7,9,10-tetrahydro-6H-[1,4]oxazino[4,3-d]pyridazino[3,4-b][1,4]oxazin-2-yl)-4-methylphenyl)isonicotinamide] | 0.1 nM
13 | (R)-2-(1,1- difluoroethyl)-3- fluoro-N-(3-(7-(2- hydroxyethyl)-6- oxo-2,4,4a,5,6,7- hexahydro-1H- [1,4]oxazino[4,3- d]pyrido[2,3- b][1,4]diazepin-10- yl)-4- methylphenyl) isonicotinamide [Example 308] | 0.7 nM
14 | N-(3-(8-(2- hydroxyethyl)-7- oxo- 1,2,4,5,5a,6,7,8- octahydropyrido[3′, 2′:2,3][1,4]diazepino [1,7- d][1,4]oxazepin- 11-yl)-4- methylphenyl)-2- (trifluoromethyl) isonicotinamide [Example 320] | 0.8 nM
